For one assay, the system named is H1299 (NSCLC) cell line. The assay is described as follows: Cancer cell cytotoxicity assay (Calcein AM / Cell Titer-Glo), H1299. Format: cell-based, human. As to the method: (§1) Compounds of the invention and comparative compounds were assayed in three cancer cell lines to confirm cytotoxic activity and to set a range of concentrations to use in subsequent assays. All cell lines were maintained in RPMI medium 1640 supplemented with 10% (wt/vol) fetal bovine serum and penicillin-streptomycin (100 units/ml and 100 μg/ml). Cells were routinely checked for microbial or mycoplasma contamination and if necessary replaced. Cells were harvested by trypsinization using 0.25% trypsin and 0.1% EDTA and then counted in a ViCell XR coulter counter in duplicate, before and after dilution for assay plating. Between four to nine different types of human cancer cells were plated at a density of 10,000-15,000 cells per well of each 96-well black tissue culture treated microtiter plate, then were grown for 1 hour at 37° C. with 5% CO2/95% air in a humidified incubator to allow cells to attach before compound addition. Compound stocks (100×) were prepared in 96-well V-bottom polypropylene microtiter plates. Five serial (1:2) dilutions were made with anhydrous DMSO at 100× the final concentration used in the assay. The individual wells in compound-containing […] well plates were diluted 1:10 with complete cell culture medium and the 10× (10 μL) stocks were added to 90 μl of cells in each plate to ensure full mixing of stocks with culture media by using a Biomek FX liquid handler with 96-well head. Doxorubicin was used as the control to monitor the behavior of each cell line. Cells were incubated with the compounds for 3 to 4 days before fluorescence and luminescence reading. Test plates were removed from the incubator and washed once in sterile PBS to remove serum containing calcium esterases. Calcein AM (acetoxymethyl ester) reagent was added and the cells were incubated for 30 min at 37° C. Plates were read for emission by using a fluorescein filter (excitation 485 nm, emission 535 nm). An equal volume (30 μL) of Cell Titer-Glo reagent (Promega Corporation, Inc.) was added and incubated for 10 min at room temperature with gentle agitation to lyse the cells. Each plate was re-read for luminescence to confirm the inhibition observed in the fluorescent […] assay as a measure of cell viability. The cancer cell cytotoxicity assays were run in triplicate using ≧5 different drug concentrations, and the data were analyzed to establish statistical significance and a valid IC50 value for inhibition of cell growth, based on ≧2 log differences in drug effect.
(§2) The cancer cell cytotoxicities (determined substantially according to the method of Example 5) of various compounds of the invention and comparative compounds as determined in four to five different human cancer cell lines are shown in Table 1. The structures of the compounds listed are found in FIGS. 2-4.

Assay [1] has as its system NCI-H460 (NSCLC) cell line. Nature of the assay: Cancer cell cytotoxicity assay (Calcein AM / Cell Titer-Glo), NCI-H460. The class given is cell-based, human. As for the experimental part: as §1, §2
For assay [2], the system named is HT29 (Colorectal) cell line. Nature of the assay: Cancer cell cytotoxicity assay (Calcein AM / Cell Titer-Glo), HT29. The class given is cell-based, human. As to the method:
as §1, §2

The subject of assay [3] is SKOV3 (Ovarian) cell line. The assay is described as follows: Cancer cell cytotoxicity assay (Calcein AM / Cell Titer-Glo), SKOV3. The class given is cell-based, human. As for the experimental part: as §1, §2
A further assay relates to A549 (NSCLC) cell line. The assay is described as follows: Cancer cell cytotoxicity assay (Calcein AM / Cell Titer-Glo), A549. The class given is cell-based, human. As to the method:
as §1, §2

In a further assay the test system is human cancer cell lines. The assay is described as follows: Cancer cell cytotoxicity, summary over four to five human cancer cell lines. Format: cell-based. The note with it: read-out: IC50 values (cancer cell cytotoxicity). As for the experimental part: as §1, §2
The mark [4] stands for this setting: Colorectal, assay set not specified.
Where [5] appears, read: Ovarian, assay set not specified.
Where [6] appears, read: Homo sapiens, NCI-H1299, NSCLC, footnote 5: determined at same time as CEN08-193.
The mark [7] stands for this setting: Homo sapiens, NCI-H460, NSCLC, footnote 5: determined at same time as CEN08-193.
Where [8] appears, read: Homo sapiens, HT-29, Colorectal, footnote 5: determined at same time as CEN08-193.
The mark [9] stands for this setting: Homo sapiens, SK-OV-3, Ovarian, footnote 5: determined at same time as CEN08-193.
Where [10] appears, read: Homo sapiens, A549, NSCLC, footnote 5: determined at same time as CEN08-193.
[11] abbreviates: NSCLC, footnote 7: determined at same time as CEN08-180.

For `CON(C1C=C2CCC3C(CCC4(C)C(c5ccc(=O)oc5)CCC34O)C2(C)CC1)C1OCC(O)C(O)C1O` (centres unmarked) [CEN08-185], the IC50 in the assay with H1299 (NSCLC) cell line (NSCLC, assay set not specified) is 5 nM; in assay [1] (NSCLC, assay set not specified), 9 nM; in assay [2] (setting [4]) it was 13 nM; in assay [3] (setting [5]) it was 15 nM; in the assay on A549 (NSCLC) cell line (NSCLC, assay set not specified), 2 nM.

Regarding `CON(C1CCC2(C)C(CCC3C2CCC2(C)C(C4=CC(=O)OC4)CCC32O)C1)C1OCC(N)C(O)C1O` (centres unmarked) [CEN08-241], the IC50 in the assay with H1299 (NSCLC) cell line (NSCLC, assay set not specified) was 24 nM; in assay [1] (NSCLC, assay set not specified), 27 nM; in assay [3] (setting [5]), 74 nM; with A549 (NSCLC) cell line (NSCLC, assay set not specified), 20 nM.

`C[C@]12CCC(OC3OC[C@H](O)[C@@H](O)[C@@H]3O)C[C@H]1CCC1C2CC[C@]2(C)[C@@H](C3=CCOC3=O)CC[C@]12O` (some centres unmarked) [CEN08-193]: the IC50 is less than 80 nM with human cancer cell lines; 6 nM with H1299 (NSCLC) cell line (setting [6]); 9 nM in assay [1] (setting [7]); 11 nM in assay [2] (setting [8]); 51 nM in assay [3] (setting [9]); 4 nM in the assay with A549 (NSCLC) cell line (setting [10]).

For `CC12CCC(OC3OCC(O)C(O)C3O)C=C1CCC1C2CCC2(C)C(c3ccc(=O)oc3)CCC12O` (centres unmarked) [CEN08-192], the IC50 with H1299 (NSCLC) cell line (NSCLC, assay set not specified) was 11 nM; in assay [1] (NSCLC, assay set not specified), 16 nM; in assay [2] (setting [4]), 16 nM; in assay [3] (setting [5]), 72 nM; with A549 (NSCLC) cell line (NSCLC, assay set not specified), 8 nM.

Turning to “(3β)-3-N-methoxyaminoscillarenin [CEN08-180]”, the IC50 was 8 nM with H1299 (NSCLC) cell line (setting [11]); 13 nM in assay [1] (setting [11]); 26 nM in assay [2] (Colorectal, footnote 7: determined at same time as CEN08-180); 34 nM in assay [3] (Ovarian, footnote 7: determined at same time as CEN08-180); 3 nM in the assay with A549 (NSCLC) cell line (setting [11]).

For the compound `C[C@]12CC[C@H](O[C@H]3OC[C@H](O)[C@@H](O)C3O)C[C@H]1CCC1C2CC[C@]2(C)[C@@H](C3=CC(=O)OC3)CC[C@]12O` (stereo partly drawn) [CEN08-178, 3-O-digitoxigenin-L-riboside], the IC50 with human cancer cell lines was less than 80 nM; in the assay on H1299 (NSCLC) cell line (Homo sapiens, NCI-H1299, NSCLC, footnote 4: determined at same time as CEN08-177 and -178), 50 nM; in assay [1] (Homo sapiens, NCI-H460, NSCLC, footnote 4: determined at same time as CEN08-177 and -178), 20 nM; in assay [2] (Homo sapiens, HT-29, Colorectal, footnote 4: determined at same time as CEN08-177 and -178) it was 70 nM; in assay [3] (Homo sapiens, SK-OV-3, Ovarian, footnote 4: determined at same time as CEN08-177 and -178) it was 80 nM; with A549 (NSCLC) cell line (Homo sapiens, A549, NSCLC, footnote 4: determined at same time as CEN08-177 and -178), 20 nM.

For the compound `CON(C1C=C2CCC3C(CCC4(C)C(c5ccc(=O)oc5)CCC34O)C2(C)CC1)C1OC(CO)C(O)C(O)C1N` (centres unmarked) [CEN08-237], the IC50 is 20 nM with H1299 (NSCLC) cell line (NSCLC, assay set not specified); 37 nM in assay [1] (NSCLC, assay set not specified); 21 nM in the assay with A549 (NSCLC) cell line (NSCLC, assay set not specified).

In the case of `CC1OC(=O)C=C1C1CCC2(O)C3CCC4CC(OC5OCC(O)C(O)C5O)CCC4(C)C3CCC12C` (centres unmarked) [CEN08-245], the IC50 with H1299 (NSCLC) cell line (NSCLC, assay set not specified) was 3700 nM; in assay [1] (NSCLC, assay set not specified) it was 2100 nM; in assay [3] (setting [5]), 3220 nM; with A549 (NSCLC) cell line (NSCLC, assay set not specified) it was 1290 nM.

For `C[C@@H]1O[C@@H](O[C@@H]2C=C3CC[C@@H]4[C@H](CC[C@]5(C)[C@@H](c6ccc(=O)oc6)CC[C@]45O)[C@@]3(C)CC2)[C@H](O)[C@H](O)[C@H]1O` [proscillaridin, reference compound], the IC50 in the assay with H1299 (NSCLC) cell line (Homo sapiens, NCI-H1299, NSCLC, footnote 6: determined at same time as CEN08-243 and -244) was 8 nM; with H1299 (NSCLC) cell line (Homo sapiens, NCI-H1299, NSCLC, footnote 7: determined at same time as CEN08-180), 4 nM; in the assay on H1299 (NSCLC) cell line (setting [6]), 3 nM; in assay [1] (Homo sapiens, NCI-H460, NSCLC, footnote 6: determined at same time as CEN08-243 and -244), 12 nM; in assay [1] (Homo sapiens, NCI-H460, NSCLC, footnote 7: determined at same time as CEN08-180), 11 nM; in assay [1] (setting [7]) it was 5 nM. In addition, the half-inhibitory concentration (IC50) in assay [2] (Homo sapiens, HT-29, Colorectal, footnote 7: determined at same time as CEN08-180) is 10 nM; in assay [2] (setting [8]) it was 7 nM; in assay [3] (Homo sapiens, SK-OV-3, Ovarian, assay set not specified), 12 nM; in assay [3] (Homo sapiens, SK-OV-3, Ovarian, footnote 6: determined at same time as CEN08-243 and -244), 15 nM; in assay [3] (Homo sapiens, SK-OV-3, Ovarian, footnote 7: determined at same time as CEN08-180), 11 nM; in assay [3] (setting [9]), 45 nM. The half-inhibitory concentration (IC50) is 12 nM in the assay on A549 (NSCLC) cell line (Homo sapiens, A549, NSCLC, footnote 6: determined at same time as CEN08-243 and -244); 3 nM in the assay with A549 (NSCLC) cell line (Homo sapiens, A549, NSCLC, footnote 7: determined at same time as CEN08-180); 2 nM in the assay with A549 (NSCLC) cell line (setting [10]).

Source of the values: patent US8703723B2, “Glycoside compounds and pharmaceutical compositions thereof” (Centrose, LLC, priority 2009, dated 2014).
